Measurements from ChEMBL document CHEMBL4308861, “Structure-based design and discovery of potent and selective lysine-specific demethylase 1 (LSD1) inhibitors” (Bioorg Med Chem Lett, 2019).

Assays:
hERG (KCNH2) = hERG (KCNH2) (Homo sapiens, UniProt Q12809); test: Inhibition of human ERG at 10 uM relative to control
[1] = molecular target: T1, Lysine-specific histone demethylase 1A (Homo sapiens, UniProt O60341); test: Inhibition of LSD1 in human THP1 cells assessed as induction of CD11b expression after 4 days by LIVE/DEAD violet staining based FACS analysis
[2] = molecular target: T1, Lysine-specific histone demethylase 1A; test: Inhibition of LSD1 (unknown origin)
[3] = AUC (0 to 6 hrs) in CD-1 mouse at 10 mg/kg, po; assay type: ADME, organism-based; set-up: dose 10 mg/kg, time < 6 hr, route oral; conditions: in vivo
[4] = molecular target: T2, Amine oxidase [flavin-containing] A (Homo sapiens, UniProt P21397); test: Inhibition of MAOA (unknown origin) at >20 uM
T2 sequence (P21397 whole entry): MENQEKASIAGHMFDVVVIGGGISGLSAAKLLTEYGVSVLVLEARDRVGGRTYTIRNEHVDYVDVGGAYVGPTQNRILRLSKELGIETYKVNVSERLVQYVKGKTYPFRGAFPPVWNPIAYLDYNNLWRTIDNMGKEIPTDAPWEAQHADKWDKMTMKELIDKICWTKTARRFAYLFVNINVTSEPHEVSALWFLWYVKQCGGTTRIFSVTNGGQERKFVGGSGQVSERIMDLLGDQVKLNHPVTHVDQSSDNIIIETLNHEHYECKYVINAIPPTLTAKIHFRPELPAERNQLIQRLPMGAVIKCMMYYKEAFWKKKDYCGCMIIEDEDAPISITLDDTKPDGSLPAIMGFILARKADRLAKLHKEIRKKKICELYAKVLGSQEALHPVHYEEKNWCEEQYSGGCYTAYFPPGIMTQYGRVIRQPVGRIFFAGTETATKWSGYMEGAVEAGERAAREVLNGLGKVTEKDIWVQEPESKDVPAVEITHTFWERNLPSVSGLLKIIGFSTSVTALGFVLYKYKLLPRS

[5] = molecular target: T3, Amine oxidase [flavin-containing] B (Homo sapiens, UniProt P27338); test: Inhibition of MAOB (unknown origin) at >20 uM
T3 sequence (P27338 whole entry): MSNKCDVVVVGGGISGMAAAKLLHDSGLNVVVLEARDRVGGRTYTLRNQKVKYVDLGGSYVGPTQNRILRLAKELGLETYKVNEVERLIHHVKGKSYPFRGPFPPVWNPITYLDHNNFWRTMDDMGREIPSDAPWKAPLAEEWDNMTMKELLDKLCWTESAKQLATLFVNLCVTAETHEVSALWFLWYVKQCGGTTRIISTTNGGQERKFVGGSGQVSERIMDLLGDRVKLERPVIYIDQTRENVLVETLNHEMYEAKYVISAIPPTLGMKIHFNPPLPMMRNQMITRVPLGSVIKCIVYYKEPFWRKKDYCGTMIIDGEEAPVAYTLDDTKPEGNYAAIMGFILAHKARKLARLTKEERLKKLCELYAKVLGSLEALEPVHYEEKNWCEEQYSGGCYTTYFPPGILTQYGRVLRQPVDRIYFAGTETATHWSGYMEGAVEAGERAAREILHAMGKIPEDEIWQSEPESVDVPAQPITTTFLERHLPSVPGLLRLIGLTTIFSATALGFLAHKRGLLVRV

hERG (KCNH2), sequence (Q12809 whole entry): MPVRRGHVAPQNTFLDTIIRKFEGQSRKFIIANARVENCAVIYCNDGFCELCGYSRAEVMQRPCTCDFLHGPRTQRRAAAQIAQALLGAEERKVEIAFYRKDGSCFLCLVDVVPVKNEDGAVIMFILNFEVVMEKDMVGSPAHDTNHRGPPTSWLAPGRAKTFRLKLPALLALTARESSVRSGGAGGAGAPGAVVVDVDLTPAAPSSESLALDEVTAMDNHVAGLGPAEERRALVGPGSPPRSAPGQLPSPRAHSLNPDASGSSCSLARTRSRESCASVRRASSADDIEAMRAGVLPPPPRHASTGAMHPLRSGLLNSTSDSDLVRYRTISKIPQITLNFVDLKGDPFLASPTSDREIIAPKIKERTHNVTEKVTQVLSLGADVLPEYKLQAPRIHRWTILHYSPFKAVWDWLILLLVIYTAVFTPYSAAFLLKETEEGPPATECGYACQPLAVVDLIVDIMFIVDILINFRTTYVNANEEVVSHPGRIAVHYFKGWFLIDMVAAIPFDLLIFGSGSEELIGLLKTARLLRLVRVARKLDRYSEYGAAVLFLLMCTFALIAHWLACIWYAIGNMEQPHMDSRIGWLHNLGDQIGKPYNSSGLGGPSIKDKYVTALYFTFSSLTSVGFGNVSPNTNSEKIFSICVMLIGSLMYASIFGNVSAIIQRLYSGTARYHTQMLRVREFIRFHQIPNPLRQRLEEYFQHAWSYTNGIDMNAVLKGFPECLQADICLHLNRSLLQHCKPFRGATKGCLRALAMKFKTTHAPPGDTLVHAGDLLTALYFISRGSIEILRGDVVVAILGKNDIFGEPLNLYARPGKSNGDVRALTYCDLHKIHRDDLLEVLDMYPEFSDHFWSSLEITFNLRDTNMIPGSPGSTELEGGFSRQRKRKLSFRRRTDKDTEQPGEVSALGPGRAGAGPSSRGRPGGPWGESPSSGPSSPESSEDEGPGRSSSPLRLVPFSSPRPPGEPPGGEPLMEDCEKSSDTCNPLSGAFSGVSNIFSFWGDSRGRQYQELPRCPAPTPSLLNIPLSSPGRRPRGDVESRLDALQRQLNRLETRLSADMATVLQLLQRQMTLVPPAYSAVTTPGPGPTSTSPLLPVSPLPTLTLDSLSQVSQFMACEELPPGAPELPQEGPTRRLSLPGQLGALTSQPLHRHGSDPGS

Row | EC50 [1] [nM] | IC50 [2] [nM] | AUC(0-t) at 6 h [3] [ng·h/mL] | inhibition (INH) [4] | inhibition (INH) [5] | SMILES | inhibition at 10 µM (hERG (KCNH2)) [%]
1 | 62 | 10 |  |  |  | Cc1ccc(-c2ncc(OC[C@@H]3CCNC3)cc2-c2ccc(C#N)cc2)cc1 | 90
2 |  |  | 106 |  |  | Cc1c(C(=O)N2CCC[C@@H](N)C2)nc(-c2ccc(C#N)c(F)c2)n1-c1ccc2c(cnn2C)c1 | 52
3 |  |  |  |  |  | COc1ccc(-n2c(-c3ccc(C#N)c(F)c3)nc(C(=O)N3CCC[C@@H](N)C3)c2C)cc1 | 69
4 |  |  |  |  |  | Cc1ccc(-n2c(-c3ccc(C#N)cc3)nc(C(=O)N3CCC[C@@H](N)C3)c2C)cc1 | 94
5 |  |  | 410 | Active | Active | CN[C@@H]1CCCN(C(=O)c2nc(-c3ccc(C#N)c(F)c3)n(-c3ccc4nn(C)c(Cl)c4c3)c2C)C1 | 34
6 |  |  | 100 | Active | Active | Cc1c(C(=O)N2CCC[C@@H](N)C2)nc(-c2ccc(C#N)c(F)c2)n1-c1ccc2nn(C)c(Cl)c2c1 | 28
7 |  |  |  |  |  | COc1ccc(-n2c(-c3ccc(C#N)c(F)c3)nc(C(=O)N[C@@H]3CCCNC3)c2C)cc1F | 65
8 |  |  |  |  |  | COc1ccc(-n2c(-c3ccc(C#N)c(F)c3)nc(C(=O)N3CC[C@H](N)C3)c2C)cc1F | 41
9 |  |  | 640 | Active | Active | CN[C@H]1CCN(C(=O)c2nc(-c3ccc(C#N)c(F)c3)n(-c3ccc4nn(C)c(Cl)c4c3)c2C)C1 | 24
10 |  |  | 660 | Active | Active | Cc1c(C(=O)N2CC[C@H](N(C)C)C2)nc(-c2ccc(C#N)c(F)c2)n1-c1cc(F)c2nn(C)cc2c1 | 17
11 |  |  | 80 | Active | Active | Cc1c(C(=O)N2CC[C@H](N)C2)nc(-c2ccc(C#N)c(F)c2)n1-c1ccc2nn(C)cc2c1 | 12
12 |  |  | 760 | Active | Active | Cc1c(C(=O)N2CC[C@H](N(C)C)C2)nc(-c2ccc(C#N)c(F)c2)n1-c1ccc2nn(C)cc2c1 | 30
13 |  |  | 940 | Active | Active | Cc1c(C(=O)N2CC[C@H](N(C)C)C2)nc(-c2ccc(C#N)c(F)c2)n1-c1cc2cn(C)nc2cc1F | 44
14 |  |  | 25 |  |  | Cc1c(C(=O)N2CCC[C@@H](N)C2)nc(-c2ccc(C#N)c(F)c2)n1-c1ccc2nn(C)cc2c1 | < 10
15 |  |  |  | Active | Active | CN[C@H]1CCN(C(=O)c2nc(-c3ccc(C#N)c(F)c3)n(-c3cc4cn(C)nc4cc3F)c2C)C1 | 22
16 |  |  |  |  |  | COc1ccc(-n2c(-c3ccc(C#N)c(F)c3)nc(C(=O)N3CCC[C@@H](N)C3)c2C)cc1F | 30
